Marks after values point to notes of the source that are not given here.
How the values were obtained:
[1] = test system: superoxide anion generation from phorbol-ester (PMA)-stimulated PMNs; experiment: Direct superoxide anion scavenging by EPR spectroscopy (DEPMPO spin trap), isolated human neutrophil assay; type: cell-based
Description: Leukocyte Isolation and Preparation. Human polymorphonuclear leukocytes (PMNs) were isolated from freshly sampled venous blood of a single volunteer by Percoll density gradient centrifugation as described previously. Briefly, each 10 mL of whole blood was mixed with 0.8 mL of 0.1 M EDTA and 25 mL of saline. The diluted blood was then layered over 9 mL of Percoll at a specific density of 1.080 g/mL. After centrifugation at 400×g for 20 min at 20° C., the plasma, mononuclear cell, and Percoll layers were removed. Erythrocytes were subsequently lysed by addition of 18 mL of ice-cold water for 30 s, followed by 2 mL of 10×PIPES buffer (25 mM PIPES, 110 mM NaCl, and 5 mM KCl, titrated to pH 7.4 with NaOH). Cells were then pelleted at 4° C., the supernatant was decanted, and the procedure was repeated. After the second hypotonic cell lysis, cells were washed twice with PAG buffer [PIPES buffer containing 0.003% human serum albumin (HSA) and 0.1% glucose]. Afterward, PMNs were counted by light microscopy on a hemocytometer. The isolation yielded PMNs with a purity of >95%. The final pellet was then suspended in PAG-CM buffer (PAG buffer with 1 mM CaCl2 and 1 mM MgCl2).
EPR Measurements. All EPR measurements were performed using a Bruker ER 300 EPR spectrometer operating at X-band with a TM110 cavity as previously described. The microwave frequency was measured with a Model 575 microwave counter (EIP Microwave, Inc., San Jose, Calif.). To measure superoxide anion ? generation from phorbol-ester (PMA)-stimulated PMNs, EPR spin-trapping studies were performed using the spin trap DEPMPO (Oxis, Portland, Oreg.) at 10 mM. 1×10^6 PMNs were stimulated with PMA (1 ng/mL) and loaded into capillary tubes for EPR measurements. To determine the radical scavenging ability of 3 and 9 in aqueous and ethanolic formulations, PMNs were pre-incubated for 5 minutes with test compound, followed by PMA stimulation.
Instrument settings used in the spin-trapping experiments were as follows: modulation amplitude, 0.32 G; time constant, 0.16 s; scan time, 60 s; modulation frequency, 100 kHz; microwave power, 20 milliwatts; and microwave frequency, 9.76 GHz. The samples were placed in a quartz EPR flat cell, and spectra were recorded. The component signals in the spectra were identified and quantified as reported previously.

[2] = Lipid peroxide levels in DLPC multilamellar vesicles, C/P 0.2 (triiodide assay); type: biochemical; settings: for Lipid Peroxide Levels: mean ± S.D.
Description: The levels of lipid peroxide formation were measured photometrically at specific time points. […] Samples were prepared in a glass test tube as described in the table above. […] Sample tubes were vortexed for 3 min to form MLVs. This assay is based on the principle of the oxidative capacity of lipid peroxides to convert […], which can be measured photometrically at […] (El-Saadani et al., 1989). […] Samples were placed in a water bath set at 37° C. Samples remained in the water bath throughout the experiment except for the temporary removal for time point extractions. • 2. […] • 3. After combining sample time point aliquots with CHOD active reagent and the diffraction buffer as described in the table above, test samples were incubated about 6 hours in darkness at ambient temperature. • 4. The absorbance ([…] nm) of the samples was measured using a spectrophotometer. • 5. […] This value was determined by adding known concentrations of I2 to the CHOD reagent. A stoichiometric relationship (slope=1.02) was observed between the amount of organic peroxides assayed and the concentration of I3^- produced.

[3] = Peroxidation study in DLPC multilamellar vesicles, C/P 0.6; type: biochemical; settings: C/P 0.6, carotenoid 10 μM, 48 hour
Description: 1. Samples were prepared in a glass test tube as described in the table above. This gives a cholesterol/DLPC mole ratio of 0.6 and a final concentration of 10 μM for the carotenoids. Equal volumes of vehicle (20 μl chloroform) were added to control samples. 2. All samples were dried down under a steady stream of nitrogen gas while vortexing. 3. Samples were placed in a vacuum desiccator for 2 hours to remove residual solvent and protected from light. 4. Multi-lamellar vesicles (MLVs) were prepared by the method developed by Bangham and Standish (1965). After samples were removed from the vacuum desiccator, they were immediately resuspended in 1 ml of diffraction buffer warmed to room temperature and vortexed for 3 minutes to form MLVs.
This assay is based on the principle of the oxidative capacity of lipid peroxides to convert I2 to I3^− (triiodide), which can be measured photometrically at 365 nm (el-Saadani et al., 1989). This assay is sensitive to peroxide concentrations as low as 10 μM.
1. Samples were placed in a water bath set at 37° C. throughout the experiment. 2. Aliquots of a sample (20 μl) were extracted at a 48 hour time point as described in the table below.
3. After combining the samples with CHOD active reagent and the diffraction buffer, test samples were incubated for about 6 hours in darkness at ambient temperature. 4. The absorbance of a sample was measured photometrically at 365 nm.
Concentrations of lipid peroxides were calculated by the use of the molar absorptivity of I3^− measured at 365 nm (ε=2.46±0.25×10^4M^−1 cm^−1). This value was determined by adding known concentrations of […] to the CHOD reagent. A stoichiometric relationship (slope=1.02) was observed between the amount of organic peroxides assayed and the concentration of I3^− produced.

[4] = cited from earlier work
[5] = Oxygen Radical Absorption Capacity (ORAC) of human plasma; type: biochemical; settings: 10.0 μM (highest concentration tested); vehicle 28.1±1.2
Description: The comparative effect of COX-2 selective agents on the antioxidant capacity of human plasma was assessed using the Oxygen Radical Absorption Capacity (ORAC) assay. This assay was carried out according to the method of Huang et al., 2002 with fresh plasma using a microplate fluorescence reader in 96 well format with the excitation and emission filters set at 485 and 530 nm respectively.

[6] = F2-isoprostane formation from DAPC lipid vesicles by GC/NCI-MS; type: biochemical
Description: F2-Isoprostanes are derived principally from the formation of positioned peroxyl radical isomers of arachidonic acid, endocyclization to protaglandin G2-like structures, and reduction to PGF2-like compounds. Total levels of F2-isoprostanes, in DAPC lipid vesicles prepared in the presence of vehicle or drug, were measured by GC-MS with negative chemical ionization as described by Walter et al., 2000. Peroxidation of lipids occurred over time in the absence of any exogenous initiators at 37° C. F2-Isoprostane formation was also measured independently using mass spectroscopy in a blinded study at the Antioxidant Research Laboratory, Tufts University, Boston, Mass.

[7] = test system: human LDL; experiment: MDA formation (TBARS) in isolated human LDL; type: biochemical; settings: for MDA level in LDL samples: 1 μM, vehicle 3.23±0.28 μM
Description: The effects of the compounds on lipid peroxidation were tested in isolated human LDL. Human venous blood was collected into vacutainer tubes containing K3EDTA after a 12-hour fast. Plasma was immediately separated by centrifugation at 3000 g for 25 minutes. LDL was obtained from plasma by ultracentrifugation using a procedure similar to that reported by Chung et al, 1986 using discontinuous KBr gradient. The purity of the freshly isolated LDL was assessed by SDS-PAGE using the procedure of Laemmli, 1970.
The extent of oxidation was measured for the LDL in the absence and presence of the drugs over a range of concentrations. Malondialdehyde (MDA), a product of lipid oxidation, was measured by the reaction of this aldehyde with thiobarbituric acid in an acid medium to form a stable chromogen, referred to as thiobarbituric-acid-reactive-substances (TBARS). Purified LDL (100 μg protein/ml) was incubated for 30 minutes with either vehicle or an NSAID at various concentrations followed by addition of 50 μM CuSO4 at 37° C. Conjugated diene formation was measured by continuously monitoring the change in absorbance at 234 nm on a Beckman DU 640 spectrophotometer, as described by Esterbauer et al., 1985. Stock solutions were tested for iron contamination, which can contribute independently to lipid peroxidation and assay artifacts.

[8] = 24 Hour, carotenoid 1 μM, control 218 ± 20
[9] = 24 Hour, carotenoid 10 μM, control 218 ± 20
[10] = 48 Hour, carotenoid 1 μM, control 572 ± 76
[11] = 48 Hour, carotenoid 10 μM, control 572 ± 76

Compound	% increase (+) or decrease (−) of lipid peroxide levels compared to control ([2]; 24 Hour, carotenoid 1 μM)	Lipid Peroxide Levels [2, 8]	% increase (+) or decrease (−) of lipid peroxide levels compared to control ([2]; 24 Hour, carotenoid 10 μM)	Lipid Peroxide Levels [2, 9]	% increase (+) or decrease (−) of lipid peroxide levels compared to control ([2]; 48 Hour, carotenoid 1 μM)	Lipid Peroxide Levels [2, 10]	% increase (+) or decrease (−) of lipid peroxide levels compared to control ([2]; 48 Hour, carotenoid 10 μM)	Lipid Peroxide Levels [2, 11]	also measured
3,3′-Diphosphoryloxy-β,ε-carotene sodium salt [Lutein Diphosphate Sodium Salt]	–	–	–	–	–	–	–	–	Mean (% inhibition) of superoxide anion signal ([1]; 40% EtOH, 0.1 mM): 18%; Mean (% inhibition) of superoxide anion signal ([1]; Water, 0.1 mM, listed as disodium diphosphate derivative of natural source lutein, sodium salt): 0%; Mean (% inhibition) of superoxide anion signal ([1]; Water, 0.1 mM, sodium salt): no inhibition; Mean (% inhibition) of superoxide anion signal ([1]; Water, 1.0 mM): 9.3%; Mean (% inhibition) of superoxide anion signal ([1]; Water, 3.0 mM): 72.3%; Mean (% inhibition) of superoxide anion signal ([1]; Water, 5.0 mM, listed as disodium diphosphate derivative of natural source lutein, sodium salt): more than 90%; Mean (% inhibition) of superoxide anion signal ([1]; Water, 5.0 mM, sodium salt): 91.0%
CC1=CC(O)CC(C)(C)C1/C=C/C(C)=C/C=C/C(C)=C/C=C/C=C(C)/C=C/C=C(C)/C=C/C1=C(C)CC(O)CC1(C)C (stereo not drawn) [Lutein, β,ε-carotene-3,3′-diol]	+15.6%^a	252 ± 11 µM	+0.9%^a	220 ± 8 µM	+13.5%^a	649 ± 73 µM	+17.7%^a	673 ± 69 µM	–
CC(C)=CCC/C(C)=C/C=C/C(C)=C/C=C/C(C)=C/C=C/C=C(C)/C=C/C=C(C)/C=C/C=C(\C)CCC=C(C)C [Lycopene]	+9.6%^a	239 ± 2 µM	+85.8%^a	405 ± 32 µM	+13.1%^a	647 ± 61 µM	+119.1%^a	1253 ± 55 µM	antioxidant/prooxidant activity [3]: highest prooxidant activity
CC1=C(/C=C/C(C)=C/C=C/C(C)=C/C=C/C=C(C)/C=C/C=C(C)/C=C/C2=C(C)C[C@@H](O)CC2(C)C)C(C)(C)C[C@H](O)C1 [Zeaxanthin]	+10.6%^a	241 ± 12 µM	−0.5%^a	217 ± 7 µM	+5.8%^a	605 ± 26 µM	+20.6%^a	690 ± 24 µM	–
Cc1ccc(-c2cc(C(F)(F)F)nn2-c2ccc(S(N)(=O)=O)cc2)cc1 [celecoxib]	–	–	–	–	–	–	–	–	maximum plasma concentration (Cmax) ([4]; approved 200 mg dose): 705 ng/mL; volume of distribution ([4]; in vivo): 400 L; Cmax ([4]; read-out: maximum plasma concentration (Cmax), approved 200 mg dose): 1850 nM; ORAC value (AUC) [5]: 28.5±0.1; effect on peroxidation of arachidonic acid-enriched vesicles ([6]; even at higher concentrations (data not shown)): no significant effect
CS(C)(=O)=O [dimethyl sulfone]	–	–	–	–	–	–	–	–	MDA level in LDL samples [7]: 3.32 ± 0.19 µM
Cc1ccc(-c2ncc(Cl)cc2-c2ccc(S(C)(=O)=O)cc2)cn1 [etoricoxib]	–	–	–	–	–	–	–	–	effect on MDA levels (TBARS) in human LDL [7]: marked increases; Levels of isoprostanes ([6]; 100 nM, vehicle 140±25 ng/100 μl, mean ± S.D.): 224±22 ng/100 μl
CS(=O)(=O)c1ccccc1 [methyl phenyl sulfone]	–	–	–	–	–	–	–	–	MDA level in LDL samples [7]: 3.25 ± 0.13 µM
CC1=C(/C=C/C(C)=C/C=C/C(C)=C/C=C/C=C(C)/C=C/C=C(C)/C=C/C2=C(C)CCCC2(C)C)C(C)(C)CCC1 [β-Carotene]	+24.8%^a	272 ± 10 µM	+69.3%^a	369 ± 17 µM	+40.4%^a	803 ± 99 µM	+86.7%^a	1068 ± 82 µM	antioxidant/prooxidant activity [3]: prooxidant activity

Reference: patent US20080293679A1, “Use of carotenoids and/or carotenoid derivatives/analogs for reduction/inhibition of certain negative effects of COX inhibitors” (priority 2005, published 2008)
